Laboratory results: patent publication US20110021507A1, “INHIBITING ANTIPSYCHOTIC-INDUCED WEIGHT GAIN” (Theracos, Inc., priority 2009, published 2011)

What was measured:
[1] = Olanzapine-induced weight gain in a rat model (Alzet minipumps); format: in vivo, Wistar-Han female rats; conditions: OLZ 10 mg/kg/day; for effect on weight gain (main effect of Treatment, 2-way repeated measures ANOVA): OLZ vs VEH p=0.042, OLZ vs OLZ+TZP p=0.01, TZP 5 mg/kg/day
Description: Arrow indicates pump implantation and solid bar over the x-axis indicates the drug treatment interval. Telenzepine was administered at a dose of 5 mg/kg/day. […] The solid line indicates the effect of OLZ administered alone (OLZ-Induced weight gain), while dashed lines indicate groups receiving TZP, either alone (dashed line) or co-administered with the 10.0 mg/kg OLZ dose (dot-dash-dot line). The dotted line indicates the weight gain in animals receiving only Vehicle treatments. […] The rats were divided into the following four groups: Group 1—Control: Vehicle (NMP:DMSO:PEG) alone Group 2—OLZ (10 mg/kg/day) alone Group 3—TZP (5 mg/kg/day) alone Group 4—OLZ (10 mg/kg/day)+TZP (5 mg/kg/day) […] Two 2-way repeated measures ANOVAs were run: 1) Comparing No Treatment (VEH) to OLZ alone (addressing the question of whether or not OLZ induced weight gain), 2) Comparing OLZ alone to OLZ+TZP (addressing the question of whether or not TZP co-administration prevented OLZ-Induced weight gain).

[2] = patients being administered olanzapine; cited from earlier work
muscarinic receptor = conditions: cited from earlier work
cortical receptors = conditions: cited from earlier work
cardiac receptors = conditions: cited from earlier work
[3] = at 90 degrees; cited from earlier work

## Cc1cc2c(s1)Nc1ccccc1N=C2N1CCN(C)CC1 [Olanzapine, 2-methyl-4-(4-methyl-1-piperazinyl)-10H-thieno[2,3-b][1,5]benzodiazepine]
[1]
  effect on weight gain (main effect of Treatment, 2-way repeated measures ANOVA): induced a significant amount of weight gain over No Treatment controls
[1]; Treatment Day 12 (peak OLZ-induced gain), TZP 5 mg/kg/day by minipump
  difference in weight gain versus Vehicle treated rats: 6.2%
[2]
  patients experiencing bodyweight gain of greater than 7%: ≤ 30%

## Cc1scc2c1N(C(=O)CN1CCN(C)CC1)c1ccccc1NC2=O [(−) form]
Muscarinic receptor
  antimuscarinic activity: considerably less active

## Cc1scc2c1N(C(=O)CN1CCN(C)CC1)c1ccccc1NC2=O [(+) form of telenzepine]
Cortical receptors
  factor by which the (+) form is more effective than the (−) isomer: 400
Cardiac receptors
  factor by which the (+) form is more potent than the (−) form: 50
Muscarinic receptor
  antimuscarinic activity: potent antimuscarinic activity

## Cc1scc2c1N(C(=O)CN1CCN(C)CC1)c1ccccc1NC2=O [Telenzepine, 4,9-Dihydro-3-methyl-4-[(4-methyl-1-piperazinyl)acetyl]-10H-thieno[3,4-b][1,5]benzodiazepin-10-one]
[1]
  effect on weight gain (main effect of Treatment, 2-way repeated measures ANOVA): significant reduction in OLZ-induced weight gain
[3]
  half time of interconversion of the two forms: approximately 200 hours
